Active and inactive are the calls of the source. The rule behind the calls is not given here. Non-standard residues stand in square brackets, D forms with d. Residues, ends and D or L forms follow the SMILES beside them. ξ: configuration not given here. Phe(4-NH2) = Nc1ccc(C[C@H](N)C(=O)O)cc1; dNle = CCCC[C@@H](N)C(=O)O; ξNle = CCCCC(N)C(=O)O
Experiments:
[1] = (§1) Displacement of [3H]DALKD from bradykinin receptor in rat brain membrane at pH 6.8 by competition assay; format: cell membranes
[2] = Retention time of the compound by HPLC analysis; format: physicochemical
[3] = Displacement of [3H]DALKD from bradykinin receptor in rat brain membrane at pH 7.4 by competition assay; format: cell membranes
Rattus norvegicus = species on record: Rattus norvegicus; assay: as §1; format: cell membranes

CC(C)C[C@H](NC(=O)[C@H](CCCCN)NC(=O)[C@@H]1CCCN1C(=O)[C@@H](N)CCCNC(=N)N)C(=O)N[C@@H](CCCCN)C(=O)O
pIC50 [1]: 7.24 | IC50 ([1]; read-out: IC50): 0.058 µM | Retention_time [2]: 6 min

CC[C@H](C)[C@H](NC(=O)[C@H](CCCNC(=N)N)NC(=O)[C@@H](NC(=O)[C@@H](N)Cc1ccccc1)[C@@H](C)CC)C(=O)N[C@@H](CCCNC(=N)N)C(=O)N1CCC[C@H]1C(=O)N[C@@H](CCCNC(=N)N)C(=O)O (H-FIRIRPR-OH)
pIC50 [1]: 6.96 | IC50 ([1]; read-out: IC50): 0.11 µM | Retention_time [2]: 9.9 min

CC(C)C[C@H](NC(=O)[C@H](CCCCN)NC(=O)[C@@H](N)Cc1ccccc1)C(=O)N[C@@H](CCCCN)C(=O)O (H-FKLK-OH)
Retention_time [2]: 10.8 min | IC50 [3]: 0.35 µM | pIC50 [3]: 6.46

CC(C)C[C@H](NC(=O)[C@H](CCCNC(=N)N)NC(=O)[C@H](CC(C)C)NC(=O)[C@@H](N)Cc1ccccc1)C(=O)N[C@@H](CCCNC(=N)N)C(=O)N1CCC[C@H]1C(=O)N[C@@H](CCCNC(=N)N)C(=O)O (H-FLRLRPR-OH)
pIC50 [1]: 7 | IC50 ([1]; read-out: IC50): 0.1 µM | Retention_time [2]: 10.8 min

CC[C@H](C)[C@H](NC(=O)[C@H](CCCNC(=N)N)NC(=O)[C@H](CCCNC(=N)N)NC(=O)[C@H](CC(C)C)NC(=O)[C@@H](N)Cc1ccccc1)C(=O)O (H-FLRRI-OH)
Retention_time [2]: 9.2 min | IC50 [3]: 4.8 µM | pIC50 [3]: 5.32

CC[C@H](C)[C@H](NC(=O)[C@H](CCCNC(=N)N)NC(=O)[C@H](CCCNC(=N)N)NC(=O)[C@H](CC(C)C)NC(=O)[C@@H](N)Cc1ccccc1)C(=O)N[C@@H](CCCNC(=N)N)C(=O)N1CCC[C@H]1C(=O)N[C@@H](CCCCN)C(=O)N[C@@H](CC(C)C)C(=O)O (H-FLRRIRPKL-OH)
pIC50 [1]: 5.28 | IC50 ([1]; read-out: IC50): 5.2 µM | Retention_time [2]: 11.4 min

CC[C@H](C)[C@H](NC(=O)[C@H](CCCNC(=N)N)NC(=O)[C@@H](N)Cc1ccccc1)C(=O)N[C@@H](CCCNC(=N)N)C(=O)N1CCC[C@H]1C(=O)N[C@@H](CCCCN)C(=O)N[C@@H](CC(C)C)C(=O)N[C@@H](CCCCN)C(=O)O (H-FRIRPKLK-OH)
pIC50 [1]: 7.08 | IC50 ([1]; read-out: IC50): 0.083 µM | Retention_time [2]: 10.2 min

CCCCC(NC(=O)[C@H](CCCNC(=N)N)NC(=O)C(CCCC)NC(=O)[C@@H](N)Cc1ccccc1)C(=O)N[C@@H](CCCNC(=N)N)C(=O)N1CCC[C@H]1C(=O)N[C@@H](CCCNC(=N)N)C(=O)O (some centres not stated) (H-F[ξNle]R[ξNle]RPR-OH)
pIC50 [1]: 7.06 | IC50 ([1]; read-out: IC50): 0.087 µM

CC(C)C[C@H](NC(=O)[C@H](Cc1ccccc1)NC(=O)CN)C(=O)N[C@@H](CCCNC(=N)N)C(=O)O (H-GFLR-OH)
Retention_time [2]: 8.7 min | IC50 [3]: 0.95 µM | pIC50 [3]: 6.02

CC[C@H](C)[C@H](NC(=O)[C@H](CCCNC(=N)N)NC(=O)[C@H](CCCNC(=N)N)NC(=O)[C@H](CC(C)C)NC(=O)[C@H](Cc1ccccc1)NC(=O)CN)C(=O)O (H-GFLRRI-OH)
Retention_time [2]: 10.1 min | IC50 [3]: 2.3 µM | pIC50 [3]: 5.63

CC[C@H](C)[C@H](NC(=O)[C@H](CCCNC(=N)N)NC(=O)[C@H](CC(C)C)NC(=O)[C@H](Cc1ccccc1)NC(=O)CNC(=O)CN)C(=O)N[C@@H](CCCNC(=N)N)C(=O)N1CCC[C@H]1C(=O)N[C@@H](CCCCN)C(=O)N[C@@H](CC(C)C)C(=O)N[C@@H](CCCCN)C(=O)O (H-GGFLRIRPKLK-OH)
pIC50 [1]: 7.39 | IC50 ([1]; read-out: IC50): 0.041 µM

CC[C@H](C)[C@H](N)C(=O)N[C@@H](CCCNC(=N)N)C(=O)N1CCC[C@H]1C(=O)N[C@@H](CCCCN)C(=O)N[C@@H](CC(C)C)C(=O)N[C@@H](CCCCN)C(=O)O (H-IRPKLK-OH)
pIC50 [1]: 7.31 | IC50 ([1]; read-out: IC50): 0.049 µM | Retention_time [2]: 6.8 min

CC[C@H](C)[C@H](NC(=O)[C@H](CCCNC(=N)N)NC(=O)[C@@H]1CCCN1C(=O)[C@H](CCCCN)NC(=O)[C@H](CC(C)C)NC(=O)[C@@H](N)CCCCN)C(=O)O (H-KLKPRI-OH)
pIC50 [1]: 5.2 | IC50 ([1]; read-out: IC50): 6.3 µM | Retention_time [2]: 9.9 min

CC[C@H](C)[C@H](NC(=O)[C@H](CCCNC(=N)N)NC(=O)[C@@H]1CCCN1C(=O)[C@H](CCCCN)NC(=O)[C@H](CC(C)C)NC(=O)[C@@H](N)CCCCN)C(=O)N[C@@H](CCCNC(=N)N)C(=O)N[C@@H](CC(C)C)C(=O)N[C@@H](Cc1ccccc1)C(=O)NCC(=O)NCC(=O)O (H-KLKPRIRLFGG-OH)
pIC50 [1]: 6.82 | IC50 ([1]; read-out: IC50): 0.15 µM | Retention_time [2]: 12.1 min

CC[C@H](C)[C@H](NC(=O)[C@H](CCCNC(=N)N)NC(=O)[C@@H]1CCCN1C(=O)[C@H](CCCCN)NC(=O)[C@H](CC(C)C)NC(=O)[C@@H](N)CCCCN)C(=O)N[C@@H](CCCNC(=N)N)C(=O)N[C@@H](CCCNC(=N)N)C(=O)N[C@@H](CC(C)C)C(=O)N[C@@H](Cc1ccccc1)C(=O)NCC(=O)NCC(=O)O (H-KLKPRIRRLFGG-OH)
pIC50 [1]: 7.11 | IC50 ([1]; read-out: IC50): 0.078 µM | Retention_time [2]: 11.6 min

CC[C@H](C)[C@H](NC(=O)[C@H](CCCNC(=N)N)NC(=O)[C@@H]1CCCN1C(=O)[C@@H](N)CCCCN)C(=O)N[C@@H](CCCNC(=N)N)C(=O)N[C@@H](CC(C)C)C(=O)O (H-KPRIRL-OH)
pIC50 [1]: 6.03 | IC50 ([1]; read-out: IC50): 0.93 µM | Retention_time [2]: 9.9 min

CC[C@H](C)[C@H](NC(=O)[C@H](CCCNC(=N)N)NC(=O)[C@@H]1CCCN1C(=O)[C@@H](N)CCCCN)C(=O)N[C@@H](CCCNC(=N)N)C(=O)N[C@@H](CC(C)C)C(=O)N[C@@H](Cc1ccccc1)C(=O)O (H-KPRIRLF-OH)
pIC50 [1]: 7.3 | IC50 ([1]; read-out: IC50): 0.05 µM | Retention_time [2]: 14.5 min

CC[C@H](C)[C@H](NC(=O)[C@H](CCCNC(=N)N)NC(=O)[C@@H]1CCCN1C(=O)[C@H](CCCCN)NC(=O)[C@H](CC(C)C)NC(=O)[C@@H](N)CC(C)C)C(=O)N[C@@H](CCCNC(=N)N)C(=O)N[C@@H](CCCNC(=N)N)C(=O)N[C@@H](CC(C)C)C(=O)N[C@@H](Cc1ccccc1)C(=O)NCC(=O)NCC(=O)O (H-LLKPRIRRLFGG-OH)
pIC50 [1]: 7.03 | IC50 ([1]; read-out: IC50): 0.093 µM | Retention_time [2]: 12.6 min

CC(C)C[C@H](NC(=O)[C@H](CCCCN)NC(=O)[C@@H]1CCCN1)C(=O)N[C@@H](CCCCN)C(=O)O (H-PKLK-OH)
pIC50 [1]: 6.68 | IC50 ([1]; read-out: IC50): 0.21 µM

CCCCC(NC(=O)[C@H](CCCCN)NC(=O)[C@@H]1CCCN1)C(=O)N[C@@H](CCCCN)C(=O)O (some centres not stated) (H-PK[ξNle]K-OH)
Retention_time [2]: 7.5 min | IC50 [3]: 0.071 µM | pIC50 [3]: 7.15

CC[C@H](C)[C@H](NC(=O)[C@@H](N)CCCNC(=N)N)C(=O)N[C@@H](CCCNC(=N)N)C(=O)N1CCC[C@H]1C(=O)N[C@@H](CCCCN)C(=O)N[C@@H](CC(C)C)C(=O)N[C@@H](CCCCN)C(=O)O (H-RIRPKLK-OH)
pIC50 [1]: 7.19 | IC50 ([1]; read-out: IC50): 0.065 µM | Retention_time [2]: 8.3 min

CC(C)C[C@H](NC(=O)[C@H](CCCCN)NC(=O)[C@@H](N)Cc1ccc(N)cc1)C(=O)N[C@@H](CCCCN)C(=O)O (H-[Phe(4-NH2)]KLK-OH)
Retention_time [2]: 7.2 min | IC50 [3]: 0.45 µM | pIC50 [3]: 6.35

CCCC[C@@H](NC(=O)[C@H](N)Cc1ccccc1)C(=O)N[C@H](CCCNC(=N)N)C(=O)N[C@H](CCCC)C(=O)N[C@H](CCCNC(=N)N)C(=O)N1CCC[C@@H]1C(=O)N[C@H](CCCCN)C(=O)O (H-[dF][dNle][dR][dNle][dR][dP][dK]-OH)
IC50 [1]: Not Active | pIC50 (Rattus norvegicus): inactive | Retention_time [2]: 11.1 min

CCCCC(N)C(=O)N[C@@H](CCCCN)C(=O)N[C@H](C(=O)N[C@@H](CCCCN)C(=O)N1CCC[C@H]1C(=O)N[C@@H](CCCCN)C(=O)O)[C@@H](C)CC (some centres not stated) (H-[ξNle]KIKPK-OH)
pIC50 [1]: 6.34 | IC50 ([1]; read-out: IC50): 0.46 µM | Retention_time [2]: 7.9 min

CCCCC(N)C(=O)N[C@@H](CCCCN)C(=O)N1CCC[C@H]1C(=O)N[C@@H](CCCCN)C(=O)NC(CCCC)C(=O)N[C@@H](CCCCN)C(=O)O (some centres not stated) (H-[ξNle]KPK[ξNle]K-OH)
pIC50 [1]: 7.11 | IC50 ([1]; read-out: IC50): 0.078 µM

CCCCC(N)C(=O)N[C@@H](CCCCN)C(=O)NC(CCCC)C(=O)N[C@@H](CCCCN)C(=O)O (some centres not stated) (H-[ξNle]K[ξNle]K-OH)
Retention_time [2]: 9.9 min | IC50 [3]: 0.11 µM | pIC50 [3]: 6.94

CCCCC(N)C(=O)N[C@@H](CCCNC(=N)N)C(=O)N1CCC[C@H]1C(=O)N[C@@H](CCCNC(=N)N)C(=O)NC(CCCC)C(=O)N[C@@H](CCCCN)C(=O)O (some centres not stated) (H-[ξNle]RPR[ξNle]K-OH)
pIC50 [1]: 7.08 | IC50 ([1]; read-out: IC50): 0.083 µM | Retention_time [2]: 8.2 min

From ChEMBL document CHEMBL3576760, “Modification of amphipathic non-opioid dynorphin A analogues for rat brain bradykinin receptors” (Bioorg Med Chem Lett, 2015)
